Data taken from PubChem BioAssay AID624133 (Broad Institute, 2012).
Several values for one entry are separate records, joined by “and”; a condition that tells them apart may be missing. Equal entries are not always repeated.

Each molecule was assayed on Clone20-Shn3RL cells, Renilla luciferase luminescence, 24 h (assay: control 3'UTR Renilla luciferase suppression, dose response, counter-screen for Shn3 inhibitor project, cell-based, Clone20-Shn3RL, cherry-picked (AID 624133)).
`C[C@H]1[C@@H](OS(=O)(=O)O)C[C@@H]2C[C@H]([C@@H](O)c3cc(=O)[nH]c(=O)[nH]3)NC3=NC[C@H]1N32` was tested, and the AC50 was 3.1 µM. `CC(=O)OC1CC2OC3C=C(C)CCC3(C)C1(C)C21CO1` (centres undefined) showed an AC50 of 3.25 µM. `CC(=O)OC[C@]12CCC(C)=C[C@H]1O[C@@H]1[C@H](O)[C@@H](OC(C)=O)[C@@]2(C)[C@]12CO2` was tested, and the AC50 was < 0.26 µM. `CCN1CCN(Cc2ccc(NC(=O)c3cc(NC(=O)c4cc5cccc(OC)c5o4)cc(OC)c3)cc2C(F)(F)F)CC1` was tested, and the AC50 was 25.1 µM and 9.12 µM. Work on `CC1=CC2OC3CC4OC(=O)C=CC=CC(=O)OCCC(C)C(O)C(=O)OCC2(CC1O)C4(C)C31CO1` (centres undefined) yielded an AC50 of 4.79 µM. For `CC1=CC2OC3CC4OC(=O)C=CC=CC(C(C)O)OCC(O)C(C)CC(=O)OCC2(CC1O)C4(C)C31CO1` (centres undefined), the AC50 was < 0.26 µM. For `CC1=CC2OC3CC4OC(=O)C=CC=CC(C(C)O)OCC(O)C5(C)OC5C(=O)OCC2(CC1O)C4(C)C31CO1` (centres undefined), the AC50 was < 0.26 µM. `CC(=O)OC1C(=O)OCC23CCC4(C)OC4C2OC2CC(OC(=O)C=CC=CC(=O)OCCC1C)C3(C)C21CO1` (centres undefined) was tested, and the AC50 was < 0.26 µM. `CC(=O)OCC12CC(OC(=O)CC(C)C)C(C)=CC1OC1C(O)C(OC(C)=O)C2(C)C12CO2` (centres undefined) was tested, and the AC50 was < 0.26 µM.
